Literature values as cited in PMC7520419 (The AAPS Journal, 2020).
Counter-ions that a name gives are not always drawn.
Wherever Observed AUC(0-inf) Fasted is given: test concentration or dose not given here.
Wherever Observed AUC(0-inf) Fed is given: test concentration or dose not given here.
Wherever Observed Cmax Fasted is given: test concentration or dose not given here.
Wherever Observed Cmax Fed is given: test concentration or dose not given here.

Details: Model 2; fasted; ref published clinical data (Table I); cited from earlier work
In the case of `C#C[C@]1(O)CC[C@H]2[C@@H]3CCC4=Cc5oncc5C[C@]4(C)[C@H]3CC[C@@]21C` [Danazol], the “Observed AUC(0-inf) Fasted” value is given as 231 ng·h/mL and the “Observed Cmax Fasted” value is given as 37 ng/mL.

Same assay, conditions: Model 2; fed; ref published clinical data (Table I); cited from earlier work
In the case of `C#C[C@]1(O)CC[C@H]2[C@@H]3CCC4=Cc5oncc5C[C@]4(C)[C@H]3CC[C@@]21C` [Danazol], the “Observed AUC(0-inf) Fed” value is listed as 668 ng·h/mL and the “Observed Cmax Fed” value is listed as 101 ng/mL.

Same assay, conditions: active metabolite measured; fed vs fasted; compiled by literature search; cited from earlier work
In the case of `COC(=O)[C@H](c1ccccc1Cl)N1CCc2sccc2C1` [Clopidogrel bisulfate], the “Food Effect” value is given as “None (none if no significant change in AUC and Cmax with food)”.

Same assay, conditions: clinically observed PK change (AUC, Cmax) fed vs fasted; compiled by literature search; cited from earlier work
In the case of `CN(C)CCc1c[nH]c2ccc(C[C@H]3COC(=O)N3)cc12` [Zolmitriptan], the “Food Effect” value is given as “None (none if no significant change in AUC and Cmax with food)”. For `CC(C)Cn1cnc2c(N)nc3ccccc3c21` [Imiquimod], the “Food Effect” value is listed as “None (none if no significant change in AUC and Cmax with food)”. In the case of `CC(C)c1nc(N(C)S(C)(=O)=O)nc(-c2ccc(F)cc2)c1/C=C/[C@@H](O)C[C@@H](O)CC(=O)O` [Rosuvastatin], the “Food Effect” value is given as “Negative (negative if ratio fasted > fed)”. For `C[C@@H](Oc1cc(-c2cnn(C3CCNCC3)c2)cnc1N)c1c(Cl)ccc(F)c1Cl` [Crizotinib], the “Food Effect” value is listed as “None (none if no significant change in AUC and Cmax with food)”. For `Cc1c(OCC(F)(F)F)ccnc1C[S+]([O-])c1nc2ccccc2[nH]1` (stereo not drawn) [Lansoprazole], the “Food Effect” value is given as “None (none if no significant change in AUC and Cmax with food)”. In the case of `CC(C)(C)c1nc(-c2cccc(NS(=O)(=O)c3c(F)cccc3F)c2F)c(-c2ccnc(N)n2)s1` [Tafinlar], the “Food Effect” value is listed as “Negative (negative if ratio fasted > fed)”. In the case of `CS(=O)(=O)CCNCc1ccc(-c2ccc3ncnc(Nc4ccc(OCc5cccc(F)c5)c(Cl)c4)c3c2)o1` [Lapatinib], the “Food Effect” value is given as “Positive (positive if the ratio of fed > fasted)”. In the case of `Cc1c(C(=O)Nc2ccc(N3C[C@@H](C)O[C@@H](C)C3)nc2)cccc1-c1ccc(OC(F)(F)F)cc1` [Sonidegib], the “Food Effect” value is given as “Positive (positive if the ratio of fed > fasted)”. For `Nc1ccn([C@H]2CC[C@@H](CO)O2)c(=O)n1` [Zalcitabine], the “Food Effect” value is listed as “None (none if no significant change in AUC and Cmax with food)”. For `O=P(O)(O)C(Cl)(Cl)P(=O)(O)O` [Clodronate], the “Food Effect” value is given as “Negative (negative if ratio fasted > fed)”. In the case of `C#C[C@]1(O)CC[C@H]2[C@@H]3CCc4cc(O)ccc4[C@H]3CC[C@@]21C` [Ethinyl estradiol], the “Food Effect” value is listed as “None (none if no significant change in AUC and Cmax with food)”. For `Cc1onc(-c2ccccc2)c1-c1ccc(S(N)(=O)=O)cc1` [Valdecoxib], the “Food Effect” value is listed as “None (none if no significant change in AUC and Cmax with food)”. In the case of `CNC(=O)c1cc(Oc2ccc(NC(=O)Nc3ccc(Cl)c(C(F)(F)F)c3)c(F)c2)ccn1` [Regorafenib], the “Food Effect” value is given as “Positive (positive if the ratio of fed > fasted)”. In the case of `CCCCC(C)(O)C/C=C/[C@H]1[C@H](O)CC(=O)[C@@H]1CCCCCCC(=O)OC` (mixture of isomers) [Misoprostol], the “Food Effect” value is listed as “None (none if no significant change in AUC and Cmax with food)”. In the case of `CC(=O)N(CCC(CCN1CCCCC1)(C(N)=O)c1ccccc1Cl)C(C)C` (stereo not drawn) [Bidisomide], the “Food Effect” value is listed as “Negative (negative if ratio fasted > fed)”. For `CNC(=O)c1ccccc1Sc1ccc2c(/C=C/c3ccccn3)n[nH]c2c1` [Axitinib], the “Food Effect” value is given as “None (none if no significant change in AUC and Cmax with food)”. In the case of `N#CC[C@H](C1CCCC1)n1cc(-c2ncnc3[nH]ccc23)cn1` [Ruxolitinib], the “Food Effect” value is given as “None (none if no significant change in AUC and Cmax with food)”. For `CCC[C@H](NC(=O)[C@@H]1[C@H]2CCC[C@H]2CN1C(=O)[C@@H](NC(=O)[C@@H](NC(=O)c1cnccn1)C1CCCCC1)C(C)(C)C)C(=O)C(=O)NC1CC1` [Telapravir], the “Food Effect” value is listed as “Positive (positive if the ratio of fed > fasted)”. For `CCCCc1oc2ccccc2c1C(=O)c1cc(I)c(OCCN(CC)CC)c(I)c1` [Amiodarone], the “Food Effect” value is listed as “Positive (positive if the ratio of fed > fasted)”. In the case of `COc1cc2nccc(Oc3ccc(NC(=O)C4(C(=O)Nc5ccc(F)cc5)CC4)cc3)c2cc1OC` [Cabozantinib], the “Food Effect” value is given as “Positive (positive if the ratio of fed > fasted)”. For `CCCCCCCNC(=O)Oc1ccc2c(c1)[C@]1(C)CCN(C)[C@@H]1N2C` [Eptastigmine], the “Food Effect” value is given as “Negative (negative if ratio fasted > fed)”. For `NC(=O)c1ncn([C@@H]2O[C@H](CO)[C@@H](O)[C@H]2O)n1` [Ribavirin], the “Food Effect” value is listed as “Positive (positive if the ratio of fed > fasted)”. In the case of `CC(C)c1c(C(=O)Nc2ccccc2)c(-c2ccccc2)c(-c2ccc(F)cc2)n1CC[C@@H](O)C[C@@H](O)CC(=O)O` [Atorvastatin], the “Food Effect” value is listed as “None (none if no significant change in AUC and Cmax with food)”. For `CS(=O)(=O)c1ccc(C2=C(c3ccccc3)C(=O)OC2)cc1` [Rofecoxib], the “Food Effect” value is given as “None (none if no significant change in AUC and Cmax with food)”. For `COc1cc2nc(N(C)CCCNC(=O)C3CCCO3)nc(N)c2cc1OC` (stereo not drawn) [Alfuzosine], the “Food Effect” value is given as “Positive (positive if the ratio of fed > fasted)”. In the case of `CC(C)OC(=O)C(C)(C)Oc1ccc(C(=O)c2ccc(Cl)cc2)cc1` [Fenofibrate], the “Food Effect” value is listed as “Positive (positive if the ratio of fed > fasted)”. For `CCCS(=O)(=O)Nc1ccc(F)c(C(=O)c2c[nH]c3ncc(-c4ccc(Cl)cc4)cc23)c1F` [Vemurafenib], the “Food Effect” value is given as “Positive (positive if the ratio of fed > fasted)”. In the case of `Cc1ccc(-c2cc(C(F)(F)F)nn2-c2ccc(S(N)(=O)=O)cc2)cc1` [Celecoxib], the “Food Effect” value is listed as “Slightly positive”. For `CC[C@@H]([C@H](C)O)n1ncn(-c2ccc(N3CCN(c4ccc(OC[C@@H]5CO[C@@](Cn6cncn6)(c6ccc(F)cc6F)C5)cc4)CC3)cc2)c1=O` [Posaconazole], the “Food Effect” value is listed as “Positive (positive if the ratio of fed > fasted)”. For `CC1(C)O[C@@H]2[C@@H](CO[C@@]3(COS(N)(=O)=O)OC(C)(C)O[C@@H]23)O1` [Topiramate], the “Food Effect” value is listed as “None (none if no significant change in AUC and Cmax with food)”. For `COc1cccc(CCc2ccccc2OCC(CN(C)C)OC(=O)CCC(=O)O)c1` (stereo not drawn) [Sarpogrelate], the “Food Effect” value is given as “Negative (negative if ratio fasted > fed)”. In the case of `CN[C@H]1CC[C@@H](c2ccc(Cl)c(Cl)c2)c2ccccc21` [Sertraline], the “Food Effect” value is given as “None (none if no significant change in AUC and Cmax with food)”. For `CCOC(=O)C1=C[C@@H](OC(CC)CC)[C@H](NC(C)=O)[C@@H](N)C1` [Oseltamavir], the “Food Effect” value is given as “None (none if no significant change in AUC and Cmax with food)”. For `O=C1CCc2ccc(OCCCCN3CCN(c4cccc(Cl)c4Cl)CC3)cc2N1` [Aripiprazole], the “Food Effect” value is listed as “None (none if no significant change in AUC and Cmax with food)”. In the case of `CC(C)(C)NC(=O)[C@@H]1C[C@@H]2CCCC[C@@H]2CN1C[C@@H](O)[C@H](Cc1ccccc1)NC(=O)[C@H](CC(N)=O)NC(=O)c1ccc2ccccc2n1` [Saquinavir], the “Food Effect” value is given as “Positive (positive if the ratio of fed > fasted)”. For `O=C1C(O)=C([C@H]2CC[C@H](c3ccc(Cl)cc3)CC2)C(=O)c2ccccc21` [Atovaquone], the “Food Effect” value is given as “Positive (positive if the ratio of fed > fasted)”. For `O=C1CN=C(c2ccccn2)c2cc(Br)ccc2N1` [Bromazepam], the “Food Effect” value is given as “Negative (negative if ratio fasted > fed)”. For `CCCSc1ccc2nc(NC(=O)OC)[nH]c2c1` [Albendazole], the “Food Effect” value is listed as “Positive (positive if the ratio of fed > fasted)”. For `CNCCC(Oc1ccc(C(F)(F)F)cc1)c1ccccc1` (stereo not drawn) [Fluoxetine hydrochloride], the “Food Effect” value is given as “None (none if no significant change in AUC and Cmax with food)”. In the case of `O=C(O[C@H]1C[C@H]2CC[C@@H](C1)[N+]21CCCC1)C(O)(c1ccccc1)c1ccccc1` [Trospium Chloride], the “Food Effect” value is listed as “Negative (negative if ratio fasted > fed)”. For `O=C1Nc2ccc(Cl)cc2[C@@](C#CC2CC2)(C(F)(F)F)O1` [Efavirenz], the “Food Effect” value is listed as “Positive (positive if the ratio of fed > fasted)”. For `COc1cc(C)c(/C=C/C(C)=C/C=C/C(C)=C/C(=O)O)c(C)c1C` [Acitretin], the “Food Effect” value is given as “Positive (positive if the ratio of fed > fasted)”. For `CSc1nc2cc(Cl)c(Oc3cccc(Cl)c3Cl)cc2[nH]1` [Triclabendazole], the “Food Effect” value is given as “Positive (positive if the ratio of fed > fasted)”. For `O=c1[nH]cnc2c1ncn2[C@H]1CC[C@@H](CO)O1` [Didanosine], the “Food Effect” value is given as “Negative (negative if ratio fasted > fed)”. In the case of `O=[N+]([O-])O[C@@H]1CO[C@H]2[C@@H]1OC[C@@H]2O` [Isosorbide Mononitrite], the “Food Effect” value is listed as “None (none if no significant change in AUC and Cmax with food)”. For `CCOc1ccccc1OCCN[C@H](C)Cc1ccc(OC)c(S(N)(=O)=O)c1` [Tamsulosin hydrochloride], the “Food Effect” value is given as “Negative (negative if ratio fasted > fed)”. In the case of `CO/N=C(\C(=O)N[C@@H]1C(=O)N2C(C(=O)OCOC(=O)C(C)(C)C)=C(/C=C\c3scnc3C)CS[C@H]12)c1csc(N)n1` [Cefditoren pivoxil], the “Food Effect” value is listed as “Positive (positive if the ratio of fed > fasted)”. In the case of `CC(C)(C(=O)O)c1ccc(C(O)CCCN2CCC(C(O)(c3ccccc3)c3ccccc3)CC2)cc1` (stereo not drawn) [Fexofenadine], the “Food Effect” value is listed as “Negative (negative if ratio fasted > fed)”. In the case of `N[C@@H](CC(=O)N1CCn2c(nnc2C(F)(F)F)C1)Cc1cc(F)c(F)cc1F` [Sitagliptin], the “Food Effect” value is given as “None (none if no significant change in AUC and Cmax with food)”. In the case of `CC1=C(/C=C/C(C)=C/C=C/C(C)=C\C(=O)O)C(C)(C)CCC1` [Isotretinoin], the “Food Effect” value is given as “Positive (positive if the ratio of fed > fasted)”. For `Cc1c(C)c2c(c(C)c1O)CCC(C)(COc1ccc(CC3SC(=O)NC3=O)cc1)O2` (stereo not drawn) [Troglitazone], the “Food Effect” value is given as “Positive (positive if the ratio of fed > fasted)”. For `CC1COc2c(N3CCN(C)CC3)c(F)cc3c(=O)c(C(=O)O)cn1c23` (stereo not drawn) [Ofloxacin], the “Food Effect” value is given as “None (Absorption delayed but extent not substantially affected) (none if no significant change in AUC and Cmax with food)”. For `CC(O)(CS(=O)(=O)c1ccc(F)cc1)C(=O)Nc1ccc(C#N)c(C(F)(F)F)c1` (stereo not drawn) [Bicalutamide], the “Food Effect” value is listed as “None (none if no significant change in AUC and Cmax with food)”.

Same assay, conditions: prodrug measured; fed vs fasted; compiled by literature search; cited from earlier work
For `COC(=O)[C@H](c1ccccc1Cl)N1CCc2sccc2C1` [Clopidogrel bisulfate], the “Food Effect” value is listed as “Positive (positive if the ratio of fed > fasted)”.

Same assay, conditions: ref drug label; cited from earlier work
For `NS(=O)(=O)c1cc(C(=O)O)c(NCc2ccco2)cc1Cl` [Furosemide], the “food effect (FE) direction” value is given as “negative FE”.
